Measured values: patent publication US20030162796A1, “Pharmaceutical composition for the treatment of disorders of non-human mammals” (priority 2001, published 2003)
Read-outs that look alike come from different tables or passages of the source.

Assays:
[1] = Plasma levels of BIBX1382 of the treated mice; assay type: in vivo, nude mice; conditions: for concentration at 2 h / concentration at 6 h / concentration at 24 h: nude, mouse, plasma, oral, read-out: plasma level, mean; for concentration at 2 h: 2 h after last compound administration on day 46; for concentration at 6 h: 6 h after last compound administration on day 46; for concentration at 24 h: 24 h after last compound administration on day 46
Procedure: (§1) When tumors were established and had reached diameters of approximately 5 mm as measured with a calliper, mice were randomly distributed into groups of 10 animals so that each tumor size was equally represented in each treatment group. The time span between cell injection and randomisation/start of treatment was sixteen days. Starting ten days after randomisation, mice were treated once daily (at 24 hour intervals) with various doses of the test compound. Administration was intragastral using a gavage needle (Infusionskanule Olive A, Acufirm, No. 14 64 11-1). Therefore, the compound was suspended in 2.5% aqueous HP-beta-CD (hydroxy-propyl-beta-cyclodextrine)/1% aqueous Natrosol (hydroxyethylcellulose). Control mice received the vehicle only. The administration volume was 2.5 to 10 ml per kg mouse body weight. The solutions were proportioned and kept at −20° C.
(§2) The low dose group received 25 mg/kg/day (day 10-22) and 50 mg/kg/day (day 23-46) of BIBX1382; whereas the high dose group received 50 mg/kg/day (day 10-22), 70 mg/kg/day (day 23-30) and 100 mg/kg/day (day 31-46) of BIBX1382. The control group was treated with vehicle only.
With plasma levels of […] at 2 hours after oral compound administration a reduction of the growth rate to a T/C value of 62% was achieved.

SH1b cells = experiment: 3H-Thymidin proliferation assay, SH1b; assay type: cell-based, canine; conditions: FIG. 3
Procedure: (§3) The ability of BIBX1382 to inhibit the proliferation of cells in culture was tested with a ^3H-Thymidin proliferation assays. This assay was performed with three tumor cell lines (SLU-1, SLU-4, SH1b) and a normal cell line (CRL-6234).
(§4) A pilot experiment with 500 to 12.000 cells per well in a 96-well plate in the presence of different concentrations of FCS (0% to 10%) was performed. After different proliferation times (24 h, 48 h, 72 h and 96 h), 10 μl ^3H-Thymidin (1:100 in PBS) were added, after incubation the plate was frozen, then thawed and the cells were harvested. The ^3H-Thymidin incorporation rate was determined. […] To determine a possible growth inhibitory effect of the inhibitor BIBX1382 on the cell lines, different concentrations (5 nM-10000 nM) of the inhibitor were used. Again ^3H-Thymidin was added, after incubation the plate was frozen, then thawed and the cells were harvested. The ^3H-Thymidin incorporation rate was determined in dependance of the concentration of inhibitor.
The ^3H-Thymidin proliferation assay was also done with the tumor cell line SH1b.

CRL-6234 cells = experiment: 3H-Thymidin proliferation assay, CRL-6234 (normal cell line); assay type: cell-based, canine
Procedure: as §3, §4

SLU-1 tumors = experiment: Effect on tumor growth in nude mice (SLU-1 subcutaneous xenograft); assay type: in vivo
Procedure: The cell line SLU-1 was cultured as described in Example 2. For use in tumor experiments, cells were trypsinised, washed and suspended in PBS+5% FCS at 10^7 cells/ml. 2×10^6 SLU-1 cells were injected into 40 nude mice (5-10 week-old female Hsd:NMRI-nu/nu purchased from Harlan, The Netherlands for the in vivo experiment with BIBX1382.
as §1, §2
Tumors were measured three times a week (Monday, Wednesday and Friday) with a calliper. Volumes [in mm^3] were then calculated according to the formula (tumor volume=length*diameter^2*π/6). To monitor side effects of treatment, mice were inspected daily for abnormalities and weighed three times (Monday, Wednesday and Friday) a week.
Tumor volumes were expressed as mean absolute tumor volumes [in mm^3] and plotted over days of treatment.
The specific relative tumor volumes (T/C [%], i.e. the mean relative tumor volumes of groups of compound-treated tumors in % of the mean relative tumor volume of the vehicle-treated control tumors: T/C [%]=100*mean Vrel compound-treated/mean Vrel vehicle-treated) were determined on the day following the final day of treatment.
Experiments were usually terminated when vehicle control mice had to be killed because of large tumor sizes (1200 to 1700 mm^3).

SLU-1 cells = experiment: 3H-Thymidin proliferation assay, SLU-1; assay type: cell-based, canine; conditions: inhibitor 5 nM-10000 nM
Procedure: as §3, §4

SLU-4 cells = experiment: 3H-Thymidin proliferation assay, SLU-4; assay type: cell-based, canine; conditions: inhibitor 5 nM-10000 nM
Procedure: as §3, §4

## CN1CCC(Nc2ncc3ncnc(Nc4ccc(F)c(Cl)c4)c3n2)CC1 [BIBX1382, 4-((3-chloro-4-fluoro-phenyl)amino)-6-(1-methyl-4-piperidinyl-amino)-pyrimido(5,4d)pyrimidine]
[1]; 2 hours after oral compound administration, level giving T/C 38%
  plasma level: approximately 4000 mmol/l
[1]; 50 mg/kg
  concentration at 2 h: 3.17 µM
  concentration at 6 h: 2.85 µM
  concentration at 24 h: 394 nM
[1]; 100 mg/kg
  concentration at 2 h: 4.16 µM
  concentration at 6 h: 4.09 µM
  concentration at 24 h: 591 nM
SH1b cells
  proliferation (3H-Thymidin incorporation): inhibited in its proliferation time
CRL-6234 cells; high concentrations
  effect on normal cell line at high concentrations: toxic effects at high concentrations
CRL-6234 cells; lower concentration
  proliferation at lower concentration: not inhibited
SLU-1 tumors; all tested doses, oral once daily, FIGS. 4 and 5
  SLU-1 tumor growth: influenced SLU-1 tumor growth at all tested doses
SLU-1 tumors; both dose groups (low and high)
  T/C values compared to the vehicle control group (standard T-test): significantly lower
SLU-1 tumors; high dose group (Group 2), 50 → 70 → 100 mg/kg/day, after 100 mg/kg/day (day 31-46), day 47
  T/C: 38%
SLU-1 tumors; high dose group after 50 mg/kg/day (day 10-22)
  T/C: 52%
SLU-1 tumors; high dose group after 70 mg/kg/day (day 23-30)
  T/C: 53%
SLU-1 tumors; high dose group, 50 mg/kg/day, day 10-22, all ten tumors
  increase in tumor size at maximum: 5-6 fold
SLU-1 tumors; high dose group, 70 mg/kg/day, day 23-30
  increase in tumor size: about 2 fold
SLU-1 tumors; high dose group, 100 mg/kg/day, day 31-46
  increase in tumor size: 1.5-1.9 fold
SLU-1 tumors; high dose group, whole period of treatment
  increase in tumor size on average: 20 fold
SLU-1 tumors; low dose group (Group 1), 25 → 50 mg/kg/day, after 50 mg/kg/day (day 23-46), day 47
  T/C: 62%
SLU-1 tumors; low dose group after 25 mg/kg/day (day 10-22)
  T/C: 78%
SLU-1 tumors; low dose group, 25 mg/kg/day, day 10-22, 9 of 10 tumors
  increase in tumor size: 8 fold
SLU-1 tumors; low dose group, 25 mg/kg/day, day 10-22, one of 10 tumors
  tumor volume change: did not change at all
SLU-1 tumors; low dose group, 50 mg/kg/day, day 23-46, all 10 tumors
  increase in tumor size: 3-6 fold
SLU-1 tumors; low dose group, whole period of treatment (day 10-46)
  increase in tumor size on average: 35 fold
SLU-1 cells
  proliferation rate (3H-Thymidin incorporation): inhibited in their proliferation rate
SLU-4 cells
  proliferation rate (3H-Thymidin incorporation): not affected
